# Activity calls are given as the source filed them. The rule behind the calls is not given here.
# Tests used:
# [1] = AUClast in CD-1 mouse at 1 mg/kg, iv administered as 5 mins infusion; format: ADME, organism-based; parameters: dose 1 mg/kg, time 0 - last, route intravenous; conditions: in vivo
# [2] = Volume of distribution at steady state in Beagle dog at 1 mg/kg, iv administered as 5 mins infusion; format: ADME, organism-based, Canis lupus familiaris; conditions: in vivo, read-out: Vdss
# [3] = Half life in mouse liver microsomes; format: ADME, microsome
# [4] = Half life in rat liver microsomes; format: ADME, microsome
# [5] = Fraction unbound in dog plasma; format: ADME, cell-free, Canis lupus familiaris
# [6] = Prodrug activation in human assessed as BMS-986169 level in blood at 37 degC; format: tissue-based
# [7] = Volume of distribution at steady state in cynomolgus monkey at 1 mg/kg, iv administered as 5 mins infusion; format: ADME, organism-based, Macaca fascicularis; conditions: in vivo, read-out: Vdss
# [8] = Ratio of drug uptake in CD-1 mouse brain to plasma at 0.1 to 1 mg/kg, iv; format: ADME, organism-based; conditions: read-out: BPR
# [9] = target: Glutamate receptor ionotropic, NMDA 2C (Homo sapiens) (UniProt Q14957); experiment: Negative allosteric modulation of human GluN2C receptor expressed in Xenopus laevis oocytes assessed as inhibition of glutamate/glycine-induced channel current at 3 uM after 10 to 15 mins by two electrode voltage clamp based electrophysiology assay; format: cell-based
# [10] = Fraction unbound in cynomolgus monkey plasma; format: ADME, cell-free, Macaca fascicularis
# [11] = Fraction unbound in rat plasma; format: ADME, cell-free
# Mus musculus [12] = experiment: Ex vivo receptor occupancy at GluN2B receptor in CD-1 mouse forebrain membranes assessed as reduction in [3H]Ro 25-6981 receptor labeling at 3 mg/kg, iv incubated for 5 mins by topcount micro scintillation counting method; format: functional
# [13] = AUClast in Sprague-Dawley rat at 1 mg/kg, iv administered as 5 mins infusion; format: ADME, organism-based; parameters: dose 1 mg/kg, route intravenous, time 0 - last; conditions: in vivo
# [14] = target: Glutamate receptor ionotropic, NMDA 2D (Homo sapiens) (UniProt O15399); experiment: Negative allosteric modulation of human GluN2D receptor expressed in Xenopus laevis oocytes assessed as inhibition of glutamate/glycine-induced channel current at 3 uM after 10 to 15 mins by two electrode voltage clamp based electrophysiology assay; format: cell-based
# [15] = target: Glutamate receptor ionotropic, NMDA 2A (Homo sapiens) (UniProt Q12879); experiment: Negative allosteric modulation of human GluN2A receptor expressed in Xenopus laevis oocytes assessed as inhibition of glutamate/glycine-induced channel current at 3 uM after 10 to 15 mins by two electrode voltage clamp based electrophysiology assay; format: cell-based
# [16] = target: Glutamate receptor ionotropic, NMDA 2B (Homo sapiens, UniProt Q05586+Q13224); experiment: Negative allosteric modulation of human GluN2B receptor expressed in Xenopus laevis oocytes assessed as inhibition of glutamate/glycine-induced channel current after 15 to 20 mins by two electrode voltage clamp based electrophysiology assay; format: cell-based
# [17] = Aqueous solubility of the compound at pH 7.4; format: physicochemical; conditions: aqueous medium
# [18] = Prodrug activation in cynomolgus monkey assessed as BMS-986169 level in plasma at 1.2 mg/kg, iv measured 10 mins post dose; format: organism-based, Macaca fascicularis; conditions: in vivo
# [19] = Dissociation constant, pKa of the compound by spectrophotometric method; format: physicochemical
# Cytochrome P450 1A2 [20] = target: T1, Cytochrome P450 1A2 (Homo sapiens, UniProt P05177); experiment: Inhibition of CYP1A2 in human liver microsomes; format: ADME
# [21] = AUClast in Beagle dog at 1 mg/kg, iv administered as 5 mins infusion; format: ADME, organism-based, Canis lupus familiaris; parameters: dose 1 mg/kg, time 0 - last, route intravenous; conditions: in vivo
# [22] = AUClast in cynomolgus monkey at 1 mg/kg, iv administered as 5 mins infusion; format: ADME, organism-based, Macaca fascicularis; parameters: dose 1 mg/kg, route intravenous, time 0 - last; conditions: in vivo
# [23] = Clearance in Beagle dog at 1 mg/kg, iv administered as 5 mins infusion; format: ADME, organism-based, Canis lupus familiaris; conditions: in vivo
# [24] = Half life in dog liver microsomes; format: ADME, Canis lupus familiaris, microsome
# [25] = Clearance in CD-1 mouse at 1 mg/kg, iv administered as 5 mins infusion; format: ADME, organism-based; conditions: in vivo
# Cavia porcellus = experiment: Cardiotoxicity in guinea pig assessed as increase in QTcB at 2 to 10 mg/kg, iv; format: toxicity, organism-based; conditions: in vivo
# Cytochrome P450 2D6 [26] = target: T2, Cytochrome P450 2D6 (Homo sapiens, UniProt P10635); experiment: Inhibition of CYP2D6 in human liver microsomes; format: ADME
# Salmonella typhimurium = experiment: Mutagenicity in Salmonella typhimurium by Ames test; format: toxicity, organism-based; conditions: salmonella enterica subsp. enterica serovar typhimurium
# [27] = Binding affinity to GluN2B receptor in cynomolgus monkey cortex; parameters: species or system Macaca fascicularis
# [28] = Prodrug activation in rat assessed as BMS-986169 level in blood at 37 degC; format: tissue-based
# [29] = Clearance in cynomolgus monkey at 1 mg/kg, iv administered as 5 mins infusion; format: ADME, organism-based, Macaca fascicularis; conditions: in vivo
# [30] = Half life in cynomolgus monkey at 1 mg/kg, iv administered as 5 mins infusion; format: ADME, organism-based, Macaca fascicularis; conditions: in vivo
# Cytochrome P450 2C19 [31] = target: T3, Cytochrome P450 2C19 (Homo sapiens, UniProt P33261); experiment: Time dependent inhibition of CYP2C19 in human liver microsomes; format: ADME
# [32] = target: Adrenergic receptor alpha-1 (Homo sapiens) (UniProt P35348+P25100+P35368); experiment: Inhibition of human adrenergic alpha 1 receptor; format: protein assay
# Cytochrome P450 1A2 [33] = target: T1, Cytochrome P450 1A2; experiment: Time dependent inhibition of CYP1A2 in human liver microsomes; format: ADME
# [34] = target: Glutamate receptor ionotropic, NMDA 2B (Homo sapiens, UniProt Q13224); experiment: Binding affinity to GluN2B receptor in human cortex
# [35] = Half life in Beagle dog at 1 mg/kg, iv administered as 5 mins infusion; format: ADME, organism-based, Canis lupus familiaris; conditions: in vivo
# [36] = Unbound plasma concentration in guinea pig at 2 to 10 mg/kg, iv; format: ADME, organism-based, Cavia porcellus; conditions: in vivo
# [37] = Volume of distribution at steady state in Sprague-Dawley rat at 1 mg/kg, iv administered as 5 mins infusion; format: ADME, organism-based; conditions: in vivo, read-out: Vdss
# Rhesus monkey = experiment: AUC (0 to 24 hrs) in monkey at 36 mg/kg, iv assessed as BMS-986169 level in plasma; format: ADME, organism-based, Macaca mulatta; parameters: dose 36 mg/kg, time < 24 hr, route intravenous; conditions: in vivo
# Cytochrome P450 2B6 [38] = target: T4, Cytochrome P450 2B6 (Homo sapiens, UniProt P20813); experiment: Inhibition of CYP2B6 in human liver microsomes; format: ADME
# Cytochrome P450 2C19 [39] = target: T3, Cytochrome P450 2C19; experiment: Inhibition of CYP2C19 in human liver microsomes; format: ADME
# Cytochrome P450 3A4 [40] = target: T5, Cytochrome P450 3A4 (Homo sapiens, UniProt P08684); experiment: Inhibition of CYP3A4 in human liver microsomes using BFC/BZR as substrate; format: ADME
# [41] = Plasma concentration in CD-1 mouse at 0.1 to 1 mg/kg, iv; format: ADME, organism-based; conditions: in vivo
# Cytochrome P450 2C8 [42] = target: T6, Cytochrome P450 2C8 (Homo sapiens, UniProt P10632); experiment: Inhibition of CYP2C8 in human liver microsomes; format: ADME
# Cytochrome P450 2C8 [43] = target: T6, Cytochrome P450 2C8; experiment: Time dependent inhibition of CYP2C8 in human liver microsomes; format: ADME
# Cytochrome P450 2D6 [44] = target: T2, Cytochrome P450 2D6; experiment: Time dependent inhibition of CYP2D6 in human liver microsomes; format: ADME
# [45] = Half life in cynomolgus monkey liver microsomes; format: ADME, Macaca fascicularis, microsome
# [46] = Prodrug activation in monkey assessed as BMS-986169 level in blood at 37 degC; format: tissue-based, Macaca mulatta; conditions: rhesus monkey
# [47] = Volume of distribution at steady state in CD-1 mouse at 1 mg/kg, iv administered as 5 mins infusion; format: ADME, organism-based; conditions: in vivo, read-out: Vdss
# Cytochrome P450 2B6 [48] = target: T4, Cytochrome P450 2B6; experiment: Time dependent inhibition of CYP2B6 in human liver microsomes; format: ADME
# [49] = Fraction unbound in mouse plasma; format: ADME, cell-free
# [50] = Clearance in Sprague-Dawley rat at 1 mg/kg, iv administered as 5 mins infusion; format: ADME, organism-based; conditions: in vivo
# Mus musculus [51] = experiment: Ex vivo receptor occupancy at GluN2B receptor in CD-1 mouse forebrain membranes assessed as reduction in [3H]Ro 25-6981 receptor labeling at 1 mg/kg, iv incubated for 5 mins by topcount micro scintillation counting method; format: functional
# Cytochrome P450 2C9 [52] = target: T7, Cytochrome P450 2C9 (Homo sapiens, UniProt P11712); experiment: Time dependent inhibition of CYP2C9 in human liver microsomes; format: ADME
# Cytochrome P450 2C9 [53] = target: T7, Cytochrome P450 2C9; experiment: Inhibition of CYP2C9 in human liver microsomes; format: ADME
# [54] = Octanol/water buffer partition co-efficient, log D of the compound at pH 7.4 by shake-flask method; format: physicochemical
# [55] = Prodrug activation in dog assessed as BMS-986169 level in blood at 37 degC; format: tissue-based, Canis lupus familiaris
# [56] = Half life in CD-1 mouse at 1 mg/kg, iv administered as 5 mins infusion; format: ADME, organism-based; conditions: in vivo
# [57] = Oral bioavailability in rat at 5 mg/kg; format: ADME, organism-based; conditions: in vivo
# [58] = Half life in Sprague-Dawley rat at 1 mg/kg, iv administered as 5 mins infusion; format: ADME, organism-based; conditions: in vivo
# Cytochrome P450 3A4 [59] = target: T5, Cytochrome P450 3A4; experiment: Time dependent inhibition of CYP3A4 in human liver microsomes using BFC/BZR as substrate; format: ADME
# [60] = Fraction unbound in human plasma; format: ADME, cell-free
# [61] = Half life in human liver microsomes; format: ADME, microsome
# T7 sequence (P11712 whole entry): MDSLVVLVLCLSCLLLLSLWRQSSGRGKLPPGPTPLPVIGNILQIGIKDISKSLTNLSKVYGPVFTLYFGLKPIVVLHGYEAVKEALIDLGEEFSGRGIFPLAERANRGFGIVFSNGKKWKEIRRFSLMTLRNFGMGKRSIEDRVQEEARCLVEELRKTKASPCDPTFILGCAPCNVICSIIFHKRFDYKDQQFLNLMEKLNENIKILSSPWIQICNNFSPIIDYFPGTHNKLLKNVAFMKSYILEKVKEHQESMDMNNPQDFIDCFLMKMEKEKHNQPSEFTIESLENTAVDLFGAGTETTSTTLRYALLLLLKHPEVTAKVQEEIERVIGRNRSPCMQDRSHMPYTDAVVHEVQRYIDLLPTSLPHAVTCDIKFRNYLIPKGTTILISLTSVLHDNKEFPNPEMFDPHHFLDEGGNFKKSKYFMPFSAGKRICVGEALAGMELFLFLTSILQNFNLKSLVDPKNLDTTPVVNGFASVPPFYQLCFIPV
# T3 sequence (P33261 whole entry): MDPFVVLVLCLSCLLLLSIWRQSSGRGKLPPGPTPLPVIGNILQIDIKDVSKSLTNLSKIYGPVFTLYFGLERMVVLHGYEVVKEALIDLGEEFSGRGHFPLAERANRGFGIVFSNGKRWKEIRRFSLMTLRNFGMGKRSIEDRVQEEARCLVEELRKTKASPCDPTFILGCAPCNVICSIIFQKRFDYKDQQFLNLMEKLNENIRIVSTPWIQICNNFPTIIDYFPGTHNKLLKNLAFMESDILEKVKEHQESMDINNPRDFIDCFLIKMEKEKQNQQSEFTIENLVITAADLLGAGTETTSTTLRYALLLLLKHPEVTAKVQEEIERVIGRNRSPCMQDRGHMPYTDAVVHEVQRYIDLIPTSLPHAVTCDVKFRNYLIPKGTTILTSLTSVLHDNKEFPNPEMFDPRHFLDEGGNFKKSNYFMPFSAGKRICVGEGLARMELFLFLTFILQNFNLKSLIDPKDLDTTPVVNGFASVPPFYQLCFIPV
# T4 sequence (P20813 whole entry): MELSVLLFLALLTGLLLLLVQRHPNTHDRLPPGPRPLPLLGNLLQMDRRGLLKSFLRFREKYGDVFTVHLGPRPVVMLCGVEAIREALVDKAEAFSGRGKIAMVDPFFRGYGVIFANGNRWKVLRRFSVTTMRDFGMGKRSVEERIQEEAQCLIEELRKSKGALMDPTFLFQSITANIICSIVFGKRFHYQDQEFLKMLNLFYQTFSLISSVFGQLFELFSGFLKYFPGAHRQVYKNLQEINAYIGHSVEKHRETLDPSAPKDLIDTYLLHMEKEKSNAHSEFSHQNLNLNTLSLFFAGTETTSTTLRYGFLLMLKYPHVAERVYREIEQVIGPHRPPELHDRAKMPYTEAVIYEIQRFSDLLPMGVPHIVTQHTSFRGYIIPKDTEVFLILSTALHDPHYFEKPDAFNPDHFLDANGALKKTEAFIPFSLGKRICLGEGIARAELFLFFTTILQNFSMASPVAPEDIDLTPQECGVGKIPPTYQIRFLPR
# T6 sequence (P10632 whole entry): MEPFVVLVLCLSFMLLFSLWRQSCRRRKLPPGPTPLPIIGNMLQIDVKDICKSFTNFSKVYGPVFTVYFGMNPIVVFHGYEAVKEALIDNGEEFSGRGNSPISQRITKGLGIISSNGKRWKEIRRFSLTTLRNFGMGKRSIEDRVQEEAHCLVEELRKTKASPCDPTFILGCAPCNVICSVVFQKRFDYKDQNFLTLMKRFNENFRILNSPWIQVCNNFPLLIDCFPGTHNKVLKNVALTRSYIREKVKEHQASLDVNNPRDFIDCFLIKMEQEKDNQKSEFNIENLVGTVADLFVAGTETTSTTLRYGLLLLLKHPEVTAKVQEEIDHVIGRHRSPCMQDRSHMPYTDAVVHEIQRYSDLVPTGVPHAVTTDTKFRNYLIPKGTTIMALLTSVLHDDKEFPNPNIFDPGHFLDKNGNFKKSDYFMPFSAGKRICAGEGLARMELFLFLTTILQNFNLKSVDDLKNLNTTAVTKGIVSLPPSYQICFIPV
# T1 sequence (P05177 whole entry, the tested form may be a part): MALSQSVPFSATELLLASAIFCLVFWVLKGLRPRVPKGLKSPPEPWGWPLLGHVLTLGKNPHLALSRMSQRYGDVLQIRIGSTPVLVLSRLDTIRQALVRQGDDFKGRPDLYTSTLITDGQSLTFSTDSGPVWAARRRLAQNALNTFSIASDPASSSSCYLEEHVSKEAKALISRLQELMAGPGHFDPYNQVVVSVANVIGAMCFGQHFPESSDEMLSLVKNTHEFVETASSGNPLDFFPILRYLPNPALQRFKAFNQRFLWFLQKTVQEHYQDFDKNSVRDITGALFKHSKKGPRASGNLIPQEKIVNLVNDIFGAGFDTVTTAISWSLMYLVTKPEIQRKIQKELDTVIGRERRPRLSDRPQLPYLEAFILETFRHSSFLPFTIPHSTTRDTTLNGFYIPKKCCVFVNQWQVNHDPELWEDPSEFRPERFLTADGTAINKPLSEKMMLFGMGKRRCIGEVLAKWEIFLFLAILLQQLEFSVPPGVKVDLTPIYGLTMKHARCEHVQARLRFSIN
# T5 sequence (P08684 whole entry): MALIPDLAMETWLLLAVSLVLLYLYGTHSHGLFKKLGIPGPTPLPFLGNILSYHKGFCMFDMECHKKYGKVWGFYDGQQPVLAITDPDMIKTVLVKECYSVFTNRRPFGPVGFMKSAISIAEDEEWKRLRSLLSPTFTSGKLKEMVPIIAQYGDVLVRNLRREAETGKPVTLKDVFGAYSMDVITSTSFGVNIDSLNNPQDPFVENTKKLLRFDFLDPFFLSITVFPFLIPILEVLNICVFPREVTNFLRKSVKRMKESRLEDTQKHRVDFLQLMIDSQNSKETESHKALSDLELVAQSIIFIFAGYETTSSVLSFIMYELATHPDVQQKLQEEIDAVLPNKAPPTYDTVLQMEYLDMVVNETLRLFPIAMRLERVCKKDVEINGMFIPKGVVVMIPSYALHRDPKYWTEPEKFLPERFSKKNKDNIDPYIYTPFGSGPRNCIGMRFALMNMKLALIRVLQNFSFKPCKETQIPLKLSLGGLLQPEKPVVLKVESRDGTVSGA
# T2 sequence (P10635 whole entry): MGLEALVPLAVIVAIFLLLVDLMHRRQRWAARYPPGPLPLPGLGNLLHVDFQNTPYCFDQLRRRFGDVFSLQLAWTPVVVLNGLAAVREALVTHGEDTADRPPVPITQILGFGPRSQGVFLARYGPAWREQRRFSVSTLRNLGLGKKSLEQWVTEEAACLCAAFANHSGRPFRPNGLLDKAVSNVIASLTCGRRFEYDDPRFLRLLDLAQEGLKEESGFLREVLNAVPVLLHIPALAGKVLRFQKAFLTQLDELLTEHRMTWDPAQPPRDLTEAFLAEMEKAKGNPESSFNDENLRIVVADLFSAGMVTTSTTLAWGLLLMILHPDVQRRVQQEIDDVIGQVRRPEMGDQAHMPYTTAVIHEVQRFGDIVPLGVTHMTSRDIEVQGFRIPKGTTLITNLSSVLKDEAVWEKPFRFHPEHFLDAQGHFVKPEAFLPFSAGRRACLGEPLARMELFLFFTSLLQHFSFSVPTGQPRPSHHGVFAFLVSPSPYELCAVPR
# Chain of Glutamate receptor ionotropic, NMDA 2C (Homo sapiens) (Q14957 whole entry): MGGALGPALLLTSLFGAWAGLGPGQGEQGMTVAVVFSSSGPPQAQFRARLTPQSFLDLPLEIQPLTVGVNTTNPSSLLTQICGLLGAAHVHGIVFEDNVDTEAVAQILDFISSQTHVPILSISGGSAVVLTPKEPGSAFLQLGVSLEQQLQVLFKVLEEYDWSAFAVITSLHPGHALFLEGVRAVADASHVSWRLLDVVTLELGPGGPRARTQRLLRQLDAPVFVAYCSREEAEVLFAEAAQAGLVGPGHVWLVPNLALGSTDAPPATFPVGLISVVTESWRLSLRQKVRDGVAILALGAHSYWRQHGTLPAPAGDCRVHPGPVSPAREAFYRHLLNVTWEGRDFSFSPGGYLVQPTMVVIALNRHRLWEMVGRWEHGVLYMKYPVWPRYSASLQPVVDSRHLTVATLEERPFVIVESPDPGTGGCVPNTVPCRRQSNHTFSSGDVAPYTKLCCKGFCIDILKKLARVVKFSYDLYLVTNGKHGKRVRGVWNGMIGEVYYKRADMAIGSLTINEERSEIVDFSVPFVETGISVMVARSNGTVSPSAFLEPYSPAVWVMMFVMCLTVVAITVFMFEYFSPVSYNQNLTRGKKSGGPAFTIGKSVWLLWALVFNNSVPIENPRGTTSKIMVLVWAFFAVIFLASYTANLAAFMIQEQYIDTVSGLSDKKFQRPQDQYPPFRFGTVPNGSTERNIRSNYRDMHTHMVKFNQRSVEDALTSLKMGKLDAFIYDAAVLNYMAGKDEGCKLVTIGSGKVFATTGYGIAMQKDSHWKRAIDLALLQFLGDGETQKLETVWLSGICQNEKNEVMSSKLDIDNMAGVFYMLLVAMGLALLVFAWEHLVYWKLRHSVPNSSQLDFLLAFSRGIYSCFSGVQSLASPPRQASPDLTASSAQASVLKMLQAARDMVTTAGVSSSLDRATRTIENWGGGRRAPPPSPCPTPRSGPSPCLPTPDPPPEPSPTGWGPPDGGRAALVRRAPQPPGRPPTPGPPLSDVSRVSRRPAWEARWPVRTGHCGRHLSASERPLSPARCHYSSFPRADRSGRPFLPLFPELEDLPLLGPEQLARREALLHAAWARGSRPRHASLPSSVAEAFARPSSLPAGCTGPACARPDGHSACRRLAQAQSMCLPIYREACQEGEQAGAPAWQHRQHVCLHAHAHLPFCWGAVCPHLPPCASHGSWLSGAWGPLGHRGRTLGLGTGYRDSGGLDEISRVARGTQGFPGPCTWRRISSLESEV
structure (smiles),measurement,setting,value
Cc1ccc(CN2CC[C@@H](N3CC[C@@H](c4ccc(O)cc4)[C@H](F)C3)C2=O)cc1,AUC(0-t) at 5 min,[1],0.53 µM·h
same,Vd,[2],2.1 L/kg
same,half-life,[3],3.5 min
same,half-life,[4],2.7 min
same,fraction unbound,[5],0.07
same,Drug metabolism,[6],Metabolite_Detected
same,Vd,[7],1.7 L/kg
same,Kp,[8],2.8
same,inhibition,[9],8.6%
same,fraction unbound,[10],0.11
same,fraction unbound,[11],0.09
same,Occ,Mus musculus [12],95%
same,AUC(0-t) at 5 min,[13],1.3 µM·h
same,inhibition,[14],7%
same,inhibition,[15],-2.4%
same,IC50,[16],0.024 µM
same,solubility,[17],2 µg/mL
same,Drug metabolism,[18],Metabolite_Detected
same,pKa,[19],4.4
same,IC50,Cytochrome P450 1A2 [20],> 18 µM
same,AUC(0-t) at 5 min,[21],2.5 µM·h
same,AUC(0-t) at 5 min,[22],2.7 µM·h
same,clearance,[23],17 mL/min/kg
same,half-life,[24],6 min
same,clearance,[25],75 mL/min/kg
same,Activity,Cavia porcellus,Non-Toxic
same,IC50,Cytochrome P450 2D6 [26],> 18 µM
same,Activity,Salmonella typhimurium,Non-Toxic
same,Ki,[27],0.0042 µM
same,Drug metabolism,[28],Metabolite_Detected
same,clearance,[29],15 mL/min/kg
same,half-life,[30],90 min
same,TDI,Cytochrome P450 2C19 [31],Not Active
same,inhibition,[32],inactive
same,TDI,Cytochrome P450 1A2 [33],Not Active
same,Ki,[34],0.0063 µM
same,half-life,[35],126 min
same,Cp(f),[36],<= 19 uM
same,Vd,[37],2.3 L/kg
same,AUC,Rhesus monkey,88 µM·h
same,IC50,Cytochrome P450 2B6 [38],> 18 µM
same,IC50,Cytochrome P450 2C19 [39],> 18 µM
same,IC50,Cytochrome P450 3A4 [40],> 18 µM
same,concentration,[41],270 to 1100 nM
same,IC50,Cytochrome P450 2C8 [42],> 18 µM
same,TDI,Cytochrome P450 2C8 [43],Not Active
same,TDI,Cytochrome P450 2D6 [44],Not Active
same,half-life,[45],12 min
same,Drug metabolism,[46],Metabolite_Detected
same,Vd,[47],8.2 L/kg
same,TDI,Cytochrome P450 2B6 [48],Not Active
same,fraction unbound,[49],0.12
same,clearance,[50],54 mL/min/kg
same,Occ,Mus musculus [51],73%
same,TDI,Cytochrome P450 2C9 [52],Not Active
same,IC50,Cytochrome P450 2C9 [53],> 18 µM
same,logD,[54],2.9
same,Drug metabolism,[55],Metabolite_Detected
same,half-life,[56],216 min
same,bioavailability,[57],2.5%
same,half-life,[58],54 min
same,TDI,Cytochrome P450 3A4 [59],Not Active
same,fraction unbound,[60],0.06
same,half-life,[61],25 min

# Reference: ChEMBL document CHEMBL4145597, “BMS-986163, a Negative Allosteric Modulator of GluN2B with Potential Utility in Major Depressive Disorder” (ACS Med Chem Lett, 2018)
